pIC50: −log10 of the molar value.
Key:
Assay type in all cases: biochemical
CYP1A1/2 = test system: T1, CYP1A1/2; assay: probe substrate conversion in rat liver microsomes, HPLC-fluorescence; conditions: ethoxyresorufin at about Km, NADPH regeneration system, 0.05 M Tris-HCl pH 7.4, 15 min; read-out: IC 50 / Positive control
T1 construct: native enzymes in rat liver microsomes; ethoxyresorufin O-deethylation (EROD) read-out
Text: probe substrate conversion in rat liver microsomes, HPLC-fluorescence on CYP1A1/2

CYP3A1/2 = test system: T2, CYP3A1/2; assay: probe substrate conversion in rat liver microsomes, HPLC-MS/MS; conditions: testosterone at about Km, NADPH regeneration system, 0.05 M Tris-HCl pH 7.4, 30 min; read-out: IC 50 / Positive control
T2 construct: native enzymes in rat liver microsomes; testosterone 6beta-hydroxylation read-out
Text: probe substrate conversion in rat liver microsomes, HPLC-MS/MS on CYP3A1/2

CYP2B1 [1] = biological target: T3, CYP2B1 (Rattus norvegicus, UniProt P00176); assay: probe substrate conversion in rat liver microsomes, HPLC-fluorescence; conditions: benzyloxyresorufin at about Km, 5 μM α-BNF added to block CYP1A1/2, NADPH regeneration system, 0.05 M Tris-HCl pH 7.4, 15 min; read-out: IC 50 / Positive control
T3 construct: native enzyme in rat liver microsomes; benzyloxyresorufin O-dealkylation (BROD) read-out
T3 sequence (P00176 1-491): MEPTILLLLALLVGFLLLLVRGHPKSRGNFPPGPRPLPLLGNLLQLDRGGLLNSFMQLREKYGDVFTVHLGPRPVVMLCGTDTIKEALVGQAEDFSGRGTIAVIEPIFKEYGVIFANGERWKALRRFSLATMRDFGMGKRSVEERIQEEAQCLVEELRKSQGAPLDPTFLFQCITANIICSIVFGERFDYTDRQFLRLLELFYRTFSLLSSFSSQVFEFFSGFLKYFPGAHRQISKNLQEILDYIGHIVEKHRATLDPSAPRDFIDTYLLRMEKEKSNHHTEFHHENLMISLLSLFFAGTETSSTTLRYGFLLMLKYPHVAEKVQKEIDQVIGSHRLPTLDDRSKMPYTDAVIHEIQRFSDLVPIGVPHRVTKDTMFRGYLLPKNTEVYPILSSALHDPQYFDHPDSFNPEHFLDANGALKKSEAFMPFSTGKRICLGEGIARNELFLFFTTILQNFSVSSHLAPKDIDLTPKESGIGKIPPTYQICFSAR
Text: probe substrate conversion in rat liver microsomes, HPLC-fluorescence on CYP2B1

CYP2D2 = biological target: T4, CYP2D2 (Rattus norvegicus, UniProt P10634); assay: Michaelis-Menten fit in rat liver microsomes, HPLC-fluorescence of dextrorphan; conditions: NADPH regeneration system, 0.05 M Tris-HCl pH 7.4, 30 min
T4 construct: gene Cyp2d26; native enzyme in rat liver microsomes; dextromethorphan to dextrorphan read-out
T4 sequence (P10634 1-500): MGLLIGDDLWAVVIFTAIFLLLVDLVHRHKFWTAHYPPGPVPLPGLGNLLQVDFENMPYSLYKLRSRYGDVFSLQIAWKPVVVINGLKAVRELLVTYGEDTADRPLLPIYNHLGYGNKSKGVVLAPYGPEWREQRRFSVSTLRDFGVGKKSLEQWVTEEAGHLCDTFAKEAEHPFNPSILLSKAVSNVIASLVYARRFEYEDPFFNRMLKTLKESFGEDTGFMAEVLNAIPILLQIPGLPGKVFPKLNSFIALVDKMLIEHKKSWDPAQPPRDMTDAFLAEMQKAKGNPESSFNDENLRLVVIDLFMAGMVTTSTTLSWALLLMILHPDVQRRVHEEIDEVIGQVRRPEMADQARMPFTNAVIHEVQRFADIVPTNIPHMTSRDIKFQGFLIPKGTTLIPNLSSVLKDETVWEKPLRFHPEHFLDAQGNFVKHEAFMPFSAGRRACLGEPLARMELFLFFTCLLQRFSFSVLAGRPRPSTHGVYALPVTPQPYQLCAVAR

CYP2B1 [2] = biological target: T3, CYP2B1; assay: Michaelis-Menten fit in rat liver microsomes, HPLC-fluorescence of resorufin; conditions: NADPH regeneration system, 0.05 M Tris-HCl pH 7.4, 15 min, 5 μM α-BNF added to block CYP1A1/2

Q: How did the pIC50 (CYP1A1/2) turn out when `O=c1cc(-c2ccccc2)oc2c1ccc1ccccc12` [α-BNF] was run?
A: Its pIC50 is 5.74.

Q: How did the pIC50 (CYP3A1/2) turn out when `CC(=O)N1CCN(c2ccc(OCC3COC(Cn4ccnc4)(c4ccc(Cl)cc4Cl)O3)cc2)CC1` (centres unmarked) [KCZ] was run?
A: Its pIC50 is 6.33.

Q: How did the pIC50 (CYP2B1 [1]) turn out when `CC(C)(C(=O)c1cccnc1)c1cccnc1` [MTY] was run?
A: The pIC50 was 5.37.

Q: For `COc1ccc2c(c1)[C@]13CCCC[C@@H]1[C@H](C2)N(C)CC3` [DOM], which Km (CYP2D2) is on record?
A: The Km was “(D) dextromethorphan (DOM) (CYP2D2)”.

Q: `O=c1ccc2nc3ccc(OCc4ccccc4)cc3oc-2c1` [BR] was tested. Which Km (CYP2B1 [2]) did it give?
A: Its Km is “(B) benzyloxyresorufin (BR) (CYP2B1)”.
